Where “and” joins values, the source holds several entries; their conditions need not be identical. Equal values may be shown once.
Legend:
[1] = for Triple point temperature: DSC
[2] = Molar enthalpy of transition or fusion; conditions: DSC
[3] = molar enthalpy of vaporization or sublimation; conditions: 298.15 K; Crystal 2; Static calorimetry

CC(C)(C)c1ccc2c(c1)Cc1cc(C(C)(C)C)ccc1-2 [2,7-di-tert-butylfluorene]
[1]
Conditions | vapor or sublimation pressure
349.14 K, Crystal 2, Calculated from knudsen effusion weight loss | 0.000106 kPa and 0.000105 kPa
351.14 K, Crystal 2, Calculated from knudsen effusion weight loss | 0.000136 kPa and 0.000135 kPa and 0.000132 kPa
353.3 K, Crystal 2, Calculated from knudsen effusion weight loss | 0.000169 kPa and 0.000171 kPa
355.28 K, Crystal 2, Calculated from knudsen effusion weight loss | 0.000213 kPa and 0.000215 kPa and 0.000217 kPa
357.2 K, Crystal 2, Calculated from knudsen effusion weight loss | 0.000271 kPa and 0.000267 kPa and 0.000261 kPa
359.19 K, Crystal 2, Calculated from knudsen effusion weight loss | 0.000321 kPa and 0.000336 kPa and 0.00033 kPa
361.14 K, Crystal 2, Calculated from knudsen effusion weight loss | 0.000408 kPa and 0.000409 kPa
363.27 K, Crystal 2, Calculated from knudsen effusion weight loss | 0.000509 kPa and 0.000507 kPa and 0.000514 kPa
368.2 K, Crystal 1, Calculated from knudsen effusion weight loss | 0.000805 kPa and 0.000816 kPa and 0.000828 kPa
368.55 K, Crystal 1, Closed cell (Static) method | 0.000873 kPa
369.13 K, Crystal 1, Calculated from knudsen effusion weight loss | 0.000886 kPa and 0.000888 kPa and 0.000889 kPa
370.26 K, Crystal 1, Calculated from knudsen effusion weight loss | 0.000975 kPa and 0.000979 kPa
370.54 K, Crystal 1, Closed cell (Static) method | 0.001055 kPa
371.21 K, Crystal 1, Calculated from knudsen effusion weight loss | 0.001079 kPa and 0.001082 kPa and 0.00107 kPa
372.21 K, Crystal 1, Calculated from knudsen effusion weight loss | 0.00118 kPa and 0.001178 kPa
372.5 K, Crystal 1, Closed cell (Static) method | 0.001246 kPa
374.5 K, Crystal 1, Closed cell (Static) method | 0.001492 kPa
376.45 K, Crystal 1, Closed cell (Static) method | 0.001778 kPa
378.41 K, Crystal 1, Closed cell (Static) method | 0.002106 kPa
380.4 K, Crystal 1, Closed cell (Static) method | 0.002524 kPa
382.38 K, Crystal 1, Closed cell (Static) method | 0.002965 kPa
384.34 K, Crystal 1, Closed cell (Static) method | 0.003492 kPa
386.3 K, Crystal 1, Closed cell (Static) method | 0.004126 kPa
388.27 K, Crystal 1, Closed cell (Static) method | 0.004862 kPa
390.24 K, Crystal 1, Closed cell (Static) method | 0.00567 kPa

[1], Closed cell (Static) method, Liquid
Conditions | vapor or sublimation pressure [kPa]
384.34 K | 0.003946
386.32 K | 0.004548
388.28 K | 0.005217
390.28 K | 0.005976
392.22 K | 0.006859
394.2 K | 0.007843
396.17 K | 0.008987
398.15 K | 0.01026
400.05 K | 0.01164
402.07 K | 0.01327
404.04 K | 0.01508

Conditions | Molar enthalpy of transition or fusion, [2] [kcal/mol] | Triple point temperature, [1] [K]
Crystal 1 | 3.73 | 395.9
Crystal 2 | 2.39 | 367

Conditions | molar enthalpy [kcal/mol]
[3] | 28.66

From the NIST ThermoML archive (doi:10.1016/j.jct.2016.05.007)
